Measured values taken from patent US12428377B2, “Sodium-hydrogen exchanger 3 inhibitor compounds” (Eli Lilly and Company, priority 2019, dated 2025).

What was measured:
[1] = system: Male Sprague-Dawley rats; assay: Effect of Example 1 on sodium absorption (urinary sodium excretion after oral NaCl bolus); type: in vivo, rat; details: 2 h urine; for Urinary Sodium to Creatinine Ratio: mean ± SEM
Procedure: Effect of Example 1 on Sodium Absorption
Urinary sodium excretion following an oral bolus dose of sodium chloride is an indirect measure of sodium absorption in the intestine.
Male Sprague-Dawley with body weights ranging from 200 to 250 g are randomized into groups based on equal mean body weights. Henceforth the following formulation is referred to as “1% HEC”: 1% hydroxyethyl cellulose (HEC) and 0.25% Tween® 80 with antifoam vehicle in water. Example 1 at 0.1 mg/mL (final dose 1 mg/kg dosed in 10 mL/kg volume) is formulated with 1% HEC in a glass vial containing a pre-weighed amount of compound, and then probe sonicating until it appears as a uniform suspension. […] The subsequent dosing solutions of Example 1 are prepared by serial dilutions with 1% HEC. NaCl at 10 mg/ml (final dose 200 mg/kg dosed in 20 ml/kg volume) is formulated by adding sterile water.
On the day before the study, the animals are placed into clean cages without food but with access to water for an overnight fast. On the day of the study, rats are orally dosed with vehicle or varying doses of Example 1. 30 min later, animals are dosed with NaCl, then immediately transferred to metabolic cages. Urine samples are collected for 2 h. Net urine volume is recorded. Urinary sodium, and creatinine are assessed using a clinical biochemistry analyzer.
Values expressed as the ratio of urinary sodium to creatinine (mM/mM) are calculated and presented as mean±SEM. The curves are fitted with 4-parameter logistic curve fitting tool GraphPad Prism 6 to calculate the ED50. For the purpose of curve fitting, the dose of Example 1 is artificially set to 0.001 mg/kg in the software for the vehicle-alone group.

[2] = target: T1, human NHE3 (Homo sapiens, UniProt P48764); assay: In vitro NHE3 inhibition activity (intracellular pH recovery, BCECF-AM, NHD C8 cells overexpressing human NHE3); type: cell-based; details: geometric mean of individual IC50
T1 construct: myc; expressed in transfected cells
T1 sequence (P48764 26-834): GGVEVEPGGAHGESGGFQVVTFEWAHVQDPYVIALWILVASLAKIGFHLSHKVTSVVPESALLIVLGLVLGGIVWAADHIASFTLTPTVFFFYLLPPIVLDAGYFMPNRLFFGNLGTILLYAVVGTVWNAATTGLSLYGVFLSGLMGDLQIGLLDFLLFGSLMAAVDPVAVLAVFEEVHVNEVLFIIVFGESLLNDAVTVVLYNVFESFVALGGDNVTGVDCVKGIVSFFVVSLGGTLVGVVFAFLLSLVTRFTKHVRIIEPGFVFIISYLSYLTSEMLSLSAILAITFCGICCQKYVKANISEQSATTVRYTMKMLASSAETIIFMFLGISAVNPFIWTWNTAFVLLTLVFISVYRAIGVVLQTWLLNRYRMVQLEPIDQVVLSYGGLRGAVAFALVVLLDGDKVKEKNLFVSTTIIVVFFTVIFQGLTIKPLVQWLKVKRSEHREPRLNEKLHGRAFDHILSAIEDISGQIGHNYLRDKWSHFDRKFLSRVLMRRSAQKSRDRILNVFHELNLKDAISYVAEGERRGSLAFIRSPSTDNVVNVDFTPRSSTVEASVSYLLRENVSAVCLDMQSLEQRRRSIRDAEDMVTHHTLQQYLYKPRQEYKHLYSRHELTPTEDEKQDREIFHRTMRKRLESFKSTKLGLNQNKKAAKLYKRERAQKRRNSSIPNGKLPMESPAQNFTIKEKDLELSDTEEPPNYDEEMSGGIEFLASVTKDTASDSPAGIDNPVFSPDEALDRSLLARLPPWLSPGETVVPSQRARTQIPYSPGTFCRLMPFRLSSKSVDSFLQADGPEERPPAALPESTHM
From the text: In Vitro NHE3 Inhibition Activity
To create an NHE3 assay, cells selectively expressing NHE3 are generated by overexpressing human NHE3 in an endogenously NHE-deficient cell line. The NHE-deficient cell line is created by chemical-induced mutagenesis. After the mutagenesis, NHE-deficient cells are selected by subjecting lithium (Li) loaded cells to an acidic extracellular environment. Under these conditions, NHE exchanges intracellular Li^+ for extracellular protons, thus only NHE-deficient cells can avoid a toxic intracellular acidosis and survive.
An NHE-deficient cell line, NHD C8, is generated by mutagenesis and selection from the cell line Dede (ATCC® CCL-39™). The mutagenesis is induced by treating Dede CCL-39 cells with EMS (Sigma-Aldrich) in growth media at a final concentration of 500 μg/ml for 20 h. […]
To measure NHE activity, the intracellular pH of the cells is reduced by addition of NH4Cl. The sodium-dependent intracellular pH change is then measured by the intracellular pH-sensitive fluorescein dye, BCECF-AM (Molecular Probes-ThermoFisher Scientific). […] The plate is immediately read for fluorescent intensity at an excitation wavelength of 505 nm and emission wavelength of 550 nm. […]

- IC50 [2]: 37.9 nM
SMILES: CN1Cc2c(Cl)cc(Cl)cc2[C@H](c2cccc(S(=O)(=O)NCCOCCOCCN/C(=N\C#N)NCCCCN/C(=N/C#N)NCCOCCOCCNS(=O)(=O)c3cccc([C@@H]4CN(C)Cc5c(Cl)cc(Cl)cc54)c3)c2)C1 [Example 1, 2-Cyano-1-[4-[[N′-cyano-N-[2-[2-[2-[[3-[(4S)-6,8-dichloro-2-methyl-3,4-dihydro-1H-isoquinolin-4-yl]phenyl]sulfonylamino]ethoxy]ethoxy]ethyl]carbamimidoyl]amino]butyl]-3-[2-[2-[2-[[3-[(4S)-6,8-dichloro-2-methyl-3,4-dihydro-1H-isoquinolin-4-yl]phenyl]sulfonylamino]ethoxy]ethoxy]ethyl]guanidine]
- ED50 ([1]; Rattus norvegicus, oral, NaCl bolus 200 mg/kg): 0.058 mg/kg
- Urinary Sodium to Creatinine Ratio ([1]; oral 0.03 mg/kg): 1.19 ± 0.19 mM/mM
- Urinary Sodium to Creatinine Ratio ([1]; oral 0.1 mg/kg): 0.80 ± 0.23 mM/mM
- Urinary Sodium to Creatinine Ratio ([1]; oral 0.3 mg/kg): 0.37 ± 0.06 mM/mM
- Urinary Sodium to Creatinine Ratio ([1]; oral 1.0 mg/kg): 0.63 ± 0.23 mM/mM
